{"source": "ChEMBL document CHEMBL4613212", "about": "“Insights of synthetic analogues of anti-leprosy agents” (Bioorg Med Chem, 2019)", "assay_type_in_all_cases": "functional", "key": {"[1]": {"tested_on": "Mycobacterium tuberculosis", "assay": "Antitubercular activity against Mycobacterium tuberculosis H37Rv ATCC 27294 assessed as inhibition of [3H]-thymidine incorporation relative to control"}, "[2]": {"tested_on": "Mycobacterium tuberculosis", "assay": "Antitubercular activity against Mycobacterium tuberculosis H37Rv ATCC 27294 assessed as growth inhibition at 6.25 ug/ml by microplate alamar blue assay relative to control"}, "Mycobacterium leprae": {"tested_on": "Mycobacterium leprae", "assay": "Anti-leprotic activity against Mycobacterium leprae assessed as maximum bactericidal dilutions"}, "Staphylococcus aureus": {"tested_on": "Staphylococcus aureus", "assay": "Antimicrobial activity against Staphylococcus aureus ATCC 25923 by broth microdilution assay"}, "Enterococcus faecalis [3]": {"tested_on": "Enterococcus faecalis", "assay": "Antimicrobial activity against Enterococcus faecalis ATCC 51922 by broth microdilution assay"}, "Listeria monocytogenes": {"tested_on": "Listeria monocytogenes", "assay": "Antimicrobial activity against Listeria monocytogenes ATCC 1911 by broth microdilution assay"}, "Escherichia coli [4]": {"tested_on": "Escherichia coli", "assay": "Antimicrobial activity against Escherichia coli ATCC 35218 by broth microdilution assay"}, "Enterococcus faecalis [5]": {"tested_on": "Enterococcus faecalis", "assay": "Antimicrobial activity against Enterococcus faecalis ATCC 29212 by broth microdilution assay"}, "Pseudomonas aeruginosa": {"tested_on": "Pseudomonas aeruginosa", "assay": "Antimicrobial activity against Pseudomonas aeruginosa ATCC 27853 by broth microdilution assay"}, "Escherichia coli [6]": {"tested_on": "Escherichia coli", "assay": "Antimicrobial activity against Escherichia coli ATCC 25922 by broth microdilution assay"}, "Klebsiella pneumoniae": {"tested_on": "Klebsiella pneumoniae", "assay": "Antimicrobial activity against Klebsiella pneumoniae 700603 by broth microdilution assay"}, "[7]": {"tested_on": "Mycobacterium tuberculosis", "assay": "Antitubercular activity against Mycobacterium tuberculosis infected in mouse assessed as reduction in microbial load at 2 to 3 mg ip, pretreated for 48 to 72 hrs followed by microbial infection and subsequent compound dosing at 48 to 72 hrs post-infection measured 24 to 32 days post-infection relative to control", "parameters": "scale not given: the % may be the effect or the level left"}, "[8]": {"tested_on": "Mycobacterium tuberculosis", "assay": "Antitubercular activity against Mycobacterium tuberculosis H37Rv ATCC 27294 incubated for 7 days by microplate alamar blue assay", "conditions": "H37Rv ATCC 27294, 168 h"}}, "data": [{"compound": "C=CCn1cnc2c(-c3ccco3)ncnc21", "values": [{"measurement": "inhibition (INH)", "setting": "[1]", "value": 11, "unit": "%"}, {"measurement": "inhibition at 6.25 µg/mL", "setting": "[2]", "value": 7, "unit": "%"}]}, {"compound": "c1csc(-c2ncnc3c2ncn3C2CCOCC2)c1", "values": [{"measurement": "inhibition (INH)", "setting": "[1]", "value": 23, "unit": "%"}, {"measurement": "inhibition at 6.25 µg/mL", "setting": "[2]", "value": 0, "unit": "%"}]}, {"compound": "CCCCCCCCC(CCC1CCCCC1)C(=O)O", "note": "(centres undefined)", "values": [{"measurement": "fold change (FC)", "setting": "Mycobacterium leprae", "value": 220}]}, {"compound": "c1ccc(-c2ncnc3c2ncn3C2CCOCC2)cc1", "values": [{"measurement": "inhibition (INH)", "setting": "[1]", "value": "<10", "unit": "%"}, {"measurement": "inhibition at 6.25 µg/mL", "setting": "[2]", "value": 3, "unit": "%"}]}, {"compound": "CCCCCCC(CCC1CCCCC1)C(=O)O", "note": "(centres undefined)", "values": [{"measurement": "fold change (FC)", "setting": "Mycobacterium leprae", "value": 125}]}, {"compound": "O=C(N[C@H](CO)[C@H](O)c1ccc([N+](=O)[O-])cc1)C(Cl)Cl", "note": "[CHLORAMPHENICOL]", "values": [{"measurement": "MIC", "setting": "Staphylococcus aureus", "value": 100, "unit": "mg/L"}, {"measurement": "MIC", "setting": "Enterococcus faecalis [3]", "value": 200, "unit": "mg/L"}, {"measurement": "MIC", "setting": "Listeria monocytogenes", "value": 100, "unit": "mg/L"}, {"measurement": "MIC", "setting": "Escherichia coli [4]", "value": 100, "unit": "mg/L"}, {"measurement": "MIC", "setting": "Enterococcus faecalis [5]", "value": 200, "unit": "mg/L"}, {"measurement": "MIC", "setting": "Pseudomonas aeruginosa", "value": 200, "unit": "mg/L"}, {"measurement": "MIC", "setting": "Escherichia coli [6]", "value": 25, "unit": "mg/L"}, {"measurement": "MIC", "setting": "Klebsiella pneumoniae", "value": 200, "unit": "mg/L"}]}, {"compound": "CCCCCCCCCCC(C(=O)O)C1CCCC1", "note": "(centres undefined)", "values": [{"measurement": "fold change (FC)", "setting": "Mycobacterium leprae", "value": 143}]}, {"compound": "CCCCCCC(CCC1CCCC1)C(=O)O", "note": "(centres undefined)", "values": [{"measurement": "fold change (FC)", "setting": "Mycobacterium leprae", "value": 320}]}, {"compound": "c1coc(-c2ncnc3c2ncn3CC2CCCCC2)c1", "values": [{"measurement": "inhibition (INH)", "setting": "[1]", "value": 60, "unit": "%"}, {"measurement": "inhibition at 6.25 µg/mL", "setting": "[2]", "value": 22, "unit": "%"}]}, {"compound": "CCCCCCCC(CCC1CCCCC1)C(=O)O", "note": "(centres undefined)", "values": [{"measurement": "fold change (FC)", "setting": "Mycobacterium leprae", "value": 160}]}, {"compound": "c1ccc(CCn2cnc3c(-c4ccco4)ncnc32)cc1", "values": [{"measurement": "inhibition (INH)", "setting": "[1]", "value": 53, "unit": "%"}, {"measurement": "inhibition at 6.25 µg/mL", "setting": "[2]", "value": 26, "unit": "%"}]}, {"compound": "CCCCCCCCCC(C(=O)O)C1C=CCC1", "note": "(centres undefined)", "values": [{"measurement": "fold change (FC)", "setting": "Mycobacterium leprae", "value": 150}]}, {"compound": "CCCCCCCCCCC(C(=O)O)C1CCCCC1", "note": "(centres undefined)", "values": [{"measurement": "fold change (FC)", "setting": "Mycobacterium leprae", "value": 180}]}, {"compound": "CC(C)(C)c1cc2c(O)c(c1)Cc1cc(C(C)(C)C)cc(c1OCCOCCOCCOCCOCCOCCOCCOCCOCCOCCOCCOCCO)Cc1cc(C(C)(C)C)cc(c1O)Cc1cc(C(C)(C)C)cc(c1OCCOCCOCCOCCOCCOCCOCCOCCOCCOCCOCCOCCO)Cc1cc(C(C)(C)C)cc(c1O)Cc1cc(C(C)(C)C)cc(c1OCCOCCOCCOCCOCCOCCOCCOCCOCCOCCOCCOCCO)Cc1cc(C(C)(C)C)cc(c1O)Cc1cc(C(C)(C)C)cc(c1OCCOCCOCCOCCOCCOCCOCCOCCOCCOCCOCCOCCO)C2", "values": [{"measurement": "Activity", "setting": "[7]", "value": "20 - 50%"}]}, {"compound": "OCCOCCOCCOCCOCCOCCOCCOCCOCCOCCOCCOCCOc1c2cc(-c3ccccc3)cc1Cc1cc(-c3ccccc3)cc(c1OCCOCCOCCOCCOCCOCCOCCOCCOCCOCCOCCOCCO)Cc1cc(-c3ccccc3)cc(c1OCCOCCOCCOCCOCCOCCOCCOCCOCCOCCOCCOCCO)Cc1cc(-c3ccccc3)cc(c1OCCOCCOCCOCCOCCOCCOCCOCCOCCOCCOCCOCCO)Cc1cc(-c3ccccc3)cc(c1OCCOCCOCCOCCOCCOCCOCCOCCOCCOCCOCCOCCO)Cc1cc(-c3ccccc3)cc(c1OCCOCCOCCOCCOCCOCCOCCOCCOCCOCCOCCOCCO)Cc1cc(-c3ccccc3)cc(c1OCCOCCOCCOCCOCCOCCOCCOCCOCCOCCOCCOCCO)C2", "values": [{"measurement": "Activity", "setting": "[7]", "value": "80 - 100%"}]}, {"compound": "N#Cc1ccc(/C=N/NC(=S)Nc2ccc(C(F)(F)F)cc2)cc1", "values": [{"measurement": "MIC", "setting": "Staphylococcus aureus", "value": 400, "unit": "mg/L"}, {"measurement": "MIC", "setting": "Enterococcus faecalis [3]", "value": 400, "unit": "mg/L"}, {"measurement": "MIC", "setting": "Listeria monocytogenes", "value": 400, "unit": "mg/L"}, {"measurement": "MIC", "setting": "Escherichia coli [4]", "value": 400, "unit": "mg/L"}, {"measurement": "MIC", "setting": "Enterococcus faecalis [5]", "value": 200, "unit": "mg/L"}, {"measurement": "MIC", "setting": "[8]", "value": 200, "unit": "mg/L"}, {"measurement": "MIC", "setting": "Pseudomonas aeruginosa", "value": 400, "unit": "mg/L"}, {"measurement": "MIC", "setting": "Escherichia coli [6]", "value": 400, "unit": "mg/L"}, {"measurement": "MIC", "setting": "Klebsiella pneumoniae", "value": 400, "unit": "mg/L"}]}, {"compound": "CCCCCCCCCCC(C(=O)O)C1C=CCC1", "note": "(centres undefined)", "values": [{"measurement": "fold change (FC)", "setting": "Mycobacterium leprae", "value": 167}]}, {"compound": "CCCCCCCCCC(C(=O)O)C1CCCC1", "note": "(centres undefined)", "values": [{"measurement": "fold change (FC)", "setting": "Mycobacterium leprae", "value": 111}]}, {"compound": "CC(C)(C)c1cc2c(O)c(c1)Cc1cc(C(C)(C)C)cc(c1OCCOCCOCCOCCOCCOCCO)Cc1cc(C(C)(C)C)cc(c1O)Cc1cc(C(C)(C)C)cc(c1OCCOCCOCCOCCOCCOCCO)Cc1cc(C(C)(C)C)cc(c1O)Cc1cc(C(C)(C)C)cc(c1OCCOCCOCCOCCOCCOCCO)C2", "values": [{"measurement": "Activity", "setting": "[7]", "value": "20 - 50%"}]}]}
